Key:
[1] = system: kochia; experiment: Test C pre-/postemergence test; type: in vivo, Kochia scoparia
How it was run: (§1)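 Seeds were planted and treated preemergence with test chemical in a non-phytotoxic solvent mixture containing surfactant. Postemergence applications of the same formulation went onto plants 2 to 18 cm tall (1- to 4-leaf stage). A dash marks no test result.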

[2] = system: green foxtail; experiment: Test C pre-/postemergence test; type: in vivo, Setaria viridis
How it was run: as §1

[3] = system: Surinam grass; experiment: Test C pre-/postemergence test; type: in vivo, Brachiaria decumbens
How it was run: as §1

[4] = system: duck salad; experiment: Test C flooded paddy test; type: in vivo, Heteranthera limosa; conditions: Flood, 62 g ai/ha; scale 0 to 100 (0 no effect, 100 complete control)
How it was run: (§2)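 In-water treatment: compound dosed into 3 cm flood over soil, water level unchanged throughout. Controls run alongside; visual assessment at day 13–15.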

[5] = system: downy brome; experiment: Test C pre-/postemergence test; type: in vivo, Bromus tectorum
How it was run: as §1

[6] = system: cocklebur; experiment: Test C pre-/postemergence test; type: in vivo, Xanthium strumarium; conditions: for Plant response rating, Cocklebur: scale 0 to 100, 0 no effect, 100 complete control
How it was run: as §1

[7] = system: common ragweed; experiment: Test C pre-/postemergence test; type: in vivo, Ambrosia elation
How it was run: as §1

[8] = system: wild oat; experiment: Test C pre-/postemergence test; type: in vivo, Avena fatua
How it was run: as §1

[9] = system: velvetleaf; experiment: Test C pre-/postemergence test; type: in vivo, Abutilon theophrasti
How it was run: as §1

[10] = system: giant foxtail; experiment: Test C pre-/postemergence test; type: in vivo, Setaria faberii
How it was run: as §1

[11] = system: lambsquarters; experiment: Test C pre-/postemergence test; type: in vivo, Chenopodium album; conditions: Postemergence; for Plant response rating, Lambsquarters: scale 0 to 100, 0 no effect, 100 complete control
How it was run: as §1

[12] = system: redroot pigweed; experiment: Test A pre-/postemergence greenhouse test; type: in vivo, Amaranthus retroflexus; conditions: for Plant response rating, Pigweed: 0 to 100 scale where 0 is no effect and 100 is complete control; for Pigweed plant response rating: 0 to 100 scale
How it was run: (§3)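 Two application timings were run side by side in the greenhouse. Before emergence, compound went onto the soil surface of loam–sand pots as a directed spray; after emergence, plants at 2–10 cm and the one- to two-leaf stage were treated. Visual injury versus controls was rated at approximately day ten.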

[13] = system: rice; experiment: Test C flooded paddy test; type: in vivo, Oryza sativa; conditions: Flood, 62 g ai/ha; scale 0 to 100 (0 no effect, 100 complete control)
How it was run: as §2

[14] = system: barnyardgrass; experiment: Test A pre-/postemergence greenhouse test; type: in vivo, Echinochloa crus-galli; conditions: for Plant response rating, Barnyardgrass: 0 to 100 scale where 0 is no effect and 100 is complete control; for Barnyardgrass plant response rating: 0 to 100 scale
How it was run: as §3

[15] = system: crabgrass; experiment: Test C pre-/postemergence test; type: in vivo, Digitaria sanguinalis
How it was run: as §1

[16] = system: johnsongrass; experiment: Test C pre-/postemergence test; type: in vivo, Sorghum halepense
How it was run: as §1

[17] = system: velvetleaf; experiment: Test A pre-/postemergence greenhouse test; type: in vivo, Abutilon theophrasti; conditions: for Plant response rating, Velvetleaf: 0 to 100 scale where 0 is no effect and 100 is complete control; for Velvetleaf plant response rating: 0 to 100 scale
How it was run: as §3

[18] = 62 g ai/ha, Preemergence, scale 0 to 100
[19] = 125 g ai/ha, preemergence, scale 0 (no effect) to 100 (complete control)
[20] = Postemergence, 62 g ai/ha, scale 0 to 100, 0 no effect, 100 complete control
[21] = Postemergence, 125 g ai/ha, scale 0 to 100, 0 no effect, 100 complete control
[22] = Postemergence, 250 g ai/ha, scale 0 to 100, 0 no effect, 100 complete control
[23] = Preemergence, 31 g ai/ha, scale 0 to 100 (0 no effect, 100 complete control)
[24] = preemergence, 250 g ai/ha, scale 0 (no effect) to 100 (complete control)
[25] = Postemergence, 500 g ai/ha, 0 is no effect, 100 is complete control
[26] = Preemergence, 125 g ai/ha, 0 no effect, 100 complete control

Cn1nc(C(F)(F)F)c(C[S+]([O-])c2ccc(F)c[n+]2[O-])c1OCC(F)(F)F (stereo not drawn) [Compound 67]
Kochia plant response rating [1, 18]: 100 | Kochia plant response rating [1, 19]: 100 | Plant response rating (0 to 100), Kochia ([1]; Postemergence, 31 g ai/ha): 0 | Plant response rating, Kochia [1, 20]: 0 | Plant response rating, Kochia [1, 21]: 60 | Plant response rating, Kochia [1, 22]: 60 | Plant response rating, Kochia [1, 23]: 80 | Kochia plant response rating [1, 24]: 100 | Foxtail, Green plant response rating [2, 18]: 100 | Foxtail, Green plant response rating [2, 19]: 100 | Plant response rating (0 to 100), Foxtail, Green ([2]; Postemergence, 31 g ai/ha): 0 | Plant response rating, Foxtail, Green [2, 20]: 45 | Plant response rating, Foxtail, Green [2, 21]: 60 | Plant response rating, Foxtail, Green [2, 22]: 90 | Plant response rating, Foxtail, Green [2, 23]: 100 | Foxtail, Green plant response rating [2, 24]: 100 | Surinam Grass plant response rating [3, 18]: 100 | Surinam Grass plant response rating [3, 19]: 100 | Plant response rating (0 to 100), Surinam Grass ([3]; Postemergence, 31 g ai/ha): 0 | Plant response rating (0 to 100), Surinam Grass ([3]; Postemergence, 62 g ai/ha): 0 | Plant response rating, Surinam Grass [3, 21]: 30 | Plant response rating, Surinam Grass [3, 22]: 45 | Plant response rating, Surinam Grass [3, 23]: 85 | Surinam Grass plant response rating [3, 24]: 100 | Plant response rating, Ducksalad [4]: 100 | Bromegrass, Downy plant response rating [5, 18]: 100 | Bromegrass, Downy plant response rating [5, 19]: 100 | Plant response rating (0 to 100), Bromegrass, Downy ([5]; Postemergence, 31 g ai/ha): 0 | Plant response rating, Bromegrass, Downy [5, 20]: 10 | Plant response rating, Bromegrass, Downy [5, 21]: 40 | Plant response rating, Bromegrass, Downy [5, 22]: 60 | Plant response rating, Bromegrass, Downy [5, 23]: 100 | Bromegrass, Downy plant response rating [5, 24]: 100 | Cocklebur plant response rating [6, 19]: 0 | Plant response rating (0 to 100), Cocklebur ([6]; Postemergence, 31 g ai/ha): 0 | Plant response rating, Cocklebur ([6]; Postemergence, 62 g ai/ha): 0 | Plant response rating, Cocklebur ([6]; Postemergence, 125 g ai/ha): 0 | Plant response rating, Cocklebur ([6]; Postemergence, 250 g ai/ha): 0 | Ragweed plant response rating [7, 18]: 100 | Ragweed plant response rating [7, 19]: 100 | Plant response rating (0 to 100), Ragweed ([7]; Postemergence, 31 g ai/ha): 0 | Plant response rating (0 to 100), Ragweed ([7]; Postemergence, 62 g ai/ha): 0 | Plant response rating, Ragweed [7, 21]: 50 | Plant response rating, Ragweed [7, 22]: 55 | Plant response rating, Ragweed [7, 23]: 100 | Ragweed plant response rating [7, 24]: 100 | Oat, Wild plant response rating [8, 18]: 80 | Oat, Wild plant response rating [8, 19]: 98 | Plant response rating (0 to 100), Oat, Wild ([8]; Postemergence, 31 g ai/ha): 10 | Plant response rating, Oat, Wild [8, 20]: 20 | Plant response rating, Oat, Wild [8, 22]: 60 | Plant response rating, Oat, Wild [8, 23]: 80 | Oat, Wild plant response rating [8, 24]: 100 | Velvetleaf plant response rating [9, 18]: 85 | Velvetleaf plant response rating [9, 19]: 100 | Plant response rating (0 to 100), Velvetleaf ([9]; Postemergence, 31 g ai/ha): 0 | Plant response rating (0 to 100), Velvetleaf ([9]; Postemergence, 62 g ai/ha): 0 | Plant response rating, Velvetleaf [9, 21]: 30 | Plant response rating, Velvetleaf [9, 22]: 35 | Plant response rating, Velvetleaf [9, 23]: 75 | Velvetleaf plant response rating [9, 24]: 100 | Foxtail, Giant plant response rating [10, 18]: 100 | Foxtail, Giant plant response rating [10, 19]: 100 | Plant response rating (0 to 100), Foxtail, Giant ([10]; Postemergence, 31 g ai/ha): 0 | Plant response rating, Foxtail, Giant [10, 20]: 0 | Plant response rating, Foxtail, Giant [10, 21]: 40 | Plant response rating, Foxtail, Giant [10, 22]: 70 | Plant response rating, Foxtail, Giant [10, 23]: 80 | Foxtail, Giant plant response rating [10, 24]: 100 | Plant response rating (0 to 100), Lambsquarters ([11]; 31 g ai/ha): 0 | Plant response rating, Lambsquarters ([11]; 62 g ai/ha): 0 | Plant response rating, Lambsquarters ([11]; 125 g ai/ha): 0 | Plant response rating, Lambsquarters ([11]; 250 g ai/ha): 10 | Plant response rating, Pigweed ([12]; Postemergence, 125 g ai/ha): 80 | Pigweed plant response rating [12, 25]: 100 | Pigweed plant response rating [12, 26]: 100 | Plant response rating, Pigweed ([12]; Preemergence, 500 g ai/ha): 100 | Plant response rating, Rice [13]: 60 | Plant response rating, Barnyardgrass ([14]; Postemergence, 125 g ai/ha): 90 | Barnyardgrass plant response rating [14, 25]: 90 | Barnyardgrass plant response rating [14, 26]: 90 | Plant response rating, Barnyardgrass ([14]; Preemergence, 500 g ai/ha): 100 | Crabgrass, Large plant response rating [15, 18]: 100 | Crabgrass, Large plant response rating [15, 19]: 100 | Plant response rating (0 to 100), Crabgrass, Large ([15]; Postemergence, 31 g ai/ha): 0 | Plant response rating, Crabgrass, Large [15, 20]: 0 | Plant response rating, Crabgrass, Large [15, 21]: 10 | Plant response rating, Crabgrass, Large [15, 22]: 60 | Plant response rating, Crabgrass, Large [15, 23]: 60 | Crabgrass, Large plant response rating [15, 24]: 100 | Johnsongrass plant response rating [16, 18]: 70 | Johnsongrass plant response rating [16, 19]: 80 | Plant response rating (0 to 100), Johnsongrass ([16]; Postemergence, 31 g ai/ha): 0 | Plant response rating, Johnsongrass [16, 20]: 0 | Plant response rating, Johnsongrass [16, 21]: 0 | Plant response rating, Johnsongrass [16, 22]: 0 | Plant response rating, Johnsongrass [16, 23]: 65 | Johnsongrass plant response rating [16, 24]: 85 | Plant response rating, Velvetleaf ([17]; Postemergence, 125 g ai/ha): 60 | Velvetleaf plant response rating [17, 25]: 90 | Velvetleaf plant response rating [17, 26]: 90 | Plant response rating, Velvetleaf ([17]; Preemergence, 500 g ai/ha): 100

Source: US20100298141A1, “SUBSTITUTED PYRIDINE N-OXIDE HERBICIDES” (E. I. DU PONT DE NEMOURS AND COMPANY, priority 2007, published 2010)
